# According to ChEMBL document CHEMBL3272296, “Quinazolines and 1,4-benzodiazepines. 82.1 5-Pyrimidyl-and 5-pyrazinylbenzodiazepines” (1977):
# Columns and labels:
# Assay type in all cases: functional
# [1] = tested on: Mus musculus; assay: Anticonvulsant activity in po dosed mouse assessed as protection against maximal electroshock-induced seizures
# [2] = tested on: Mus musculus; assay: Anticonvulsant activity in po dosed mouse assessed as protection against pentylenetetrazole-induced seizures
# [3] = tested on: Felis catus; assay: CNS activity in po dosed unanesthesized cat assessed as muscle relaxant activity; details: read-out: MED
# [4] = tested on: Mus musculus; assay: CNS activity in po dosed mouse assessed as reduction in muscle relaxant activity by inclined screening method
# [5] = tested on: Mus musculus; assay: CNS activity in po dosed mouse assessed as reduction in fighting behaviour
SMILES,ED50 [1] [mg/kg],ED50 [2] [mg/kg],minimal effective dose [3] [mg/kg],ED50 [4] [mg/kg],ED50 [5] [mg/kg]
CN1C(=O)CN=C(c2ccccc2)c2cc(Cl)ccc21 [DIAZEPAM],22,1.4,0.2,30,10
Cc1cnc(C)c(C2=NCC(=O)Nc3ccc(Br)cc32)n1,> 800,37,10,> 400,50
O=C1CN=C(c2ncccn2)c2cc(Cl)ccc2N1,520,1.75,2,500,100
CN1CCN=C(c2ncccn2)c2cc([N+](=O)[O-])ccc21,> 800,93,20,250,> 100
CN1CCN=C(c2ncccn2)c2cc(Cl)ccc21,360,> 800,10,200,100
O=C1CN=C(c2cnccn2)c2cc(Cl)ccc2N1,> 800,7.4,10,300,50
CN1C(=O)CN=C(c2ncccn2)c2cc(Cl)ccc21,315,0.75,0.1,> 200,–
O=C1CN=C(c2ccccn2)c2cc(Br)ccc2N1 [BROMAZEPAM],34,0.8,0.2,30,10
O=[N+]([O-])c1ccc2c(c1)C(c1ncccn1)=NCCN2,> 800,68,–,> 400,–
O=C1CN=C(c2ccncn2)c2cc(Cl)ccc2N1,> 800,340,–,> 400,> 100
